From patent US20250214979A1, “COMPOUNDS FOR TREATING PSYCHOSTIMULANT MISUSE” (University of Florida Research Foundation, Incorporated, priority 2022, published 2025)
Where two headings read alike, the source gives them in different places.

Tests used:
dopamine transporter (h) = biological target: T1, dopamine transporter (h) (Homo sapiens, UniProt Q01959); test: dopamine transporter (h) antagonist radioligand binding assay ([3H]BTCP); settings: 1.00E−06 M
T1 construct: expressed in transfected cells; host or cells: CHO cells
T1 sequence (Q01959 whole entry): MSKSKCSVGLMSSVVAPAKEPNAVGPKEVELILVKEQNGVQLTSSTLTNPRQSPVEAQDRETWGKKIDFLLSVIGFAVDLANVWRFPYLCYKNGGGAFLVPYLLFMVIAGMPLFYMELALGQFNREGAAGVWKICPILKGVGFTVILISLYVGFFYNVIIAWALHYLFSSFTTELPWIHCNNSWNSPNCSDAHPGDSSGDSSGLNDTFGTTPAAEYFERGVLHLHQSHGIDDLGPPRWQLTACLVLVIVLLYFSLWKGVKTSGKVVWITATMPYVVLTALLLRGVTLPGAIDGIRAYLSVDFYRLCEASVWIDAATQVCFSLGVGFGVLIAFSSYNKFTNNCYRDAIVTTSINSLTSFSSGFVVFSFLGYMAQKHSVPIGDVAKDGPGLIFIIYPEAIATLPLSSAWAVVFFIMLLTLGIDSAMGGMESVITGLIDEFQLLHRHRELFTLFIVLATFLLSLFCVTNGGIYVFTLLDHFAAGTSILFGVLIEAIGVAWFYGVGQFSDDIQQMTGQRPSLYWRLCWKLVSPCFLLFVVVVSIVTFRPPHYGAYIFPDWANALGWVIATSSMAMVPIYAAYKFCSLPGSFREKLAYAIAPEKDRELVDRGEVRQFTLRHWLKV
Description: [The source words this procedure for another target and reports this target under the same test.] (§1) 12 compounds in binding assays (either sigma 1 or sigma 2 receptors) at 1.0×10^−6 M. Compound binding was calculated as a % inhibition of the binding of a ligand specific for each target.
(§2) The results are expressed as a percent of control specific binding: [(measured specific binding)/(control specific binding)]*100 and as a percent inhibition of control specific binding: 100−{[(measured specific binding)/(control specific binding)]*100}, obtained in the presence of the test compounds.
(§3) The IC50 values (concentration causing a half-maximal inhibition of control specific binding) and Hill coefficients (nH) were determined by non-linear regression analysis of the competition curves generated with mean replicate values using Hill equation curve fitting: Y={D+[(A−D)/(1+(C/C50)^nH)]} (where Y=specific binding, A=left asymptote of the curve, D=right asymptote of the curve, C=compound concentration, C50=IC50, and nH=slope factor). This analysis was performed using software developed at Cerep (Hill software) and validated by comparison with data generated by the commercial software SigmaPlot® 4.0 for Windows® (© 1997 by SPSS Inc.). The inhibition constants (Ki) were calculated using the Cheng Prusoff equation: Ki=(IC50)/(1+L/KD) (where L=concentration of ligand in the assay, and KD=affinity of the ligand for the receptor).

sigma 1 (h) = biological target: T2, sigma 1 (h) (Homo sapiens, UniProt Q99720); test: sigma 1 (h) agonist radioligand binding assay ([3H](+)pentazocine); settings: Sigma 1 Receptor, 1.00E−06 M
T2 construct: endogenous; endogenous in cells; host or cells: Jurkat cells
T2 sequence (Q99720 whole entry): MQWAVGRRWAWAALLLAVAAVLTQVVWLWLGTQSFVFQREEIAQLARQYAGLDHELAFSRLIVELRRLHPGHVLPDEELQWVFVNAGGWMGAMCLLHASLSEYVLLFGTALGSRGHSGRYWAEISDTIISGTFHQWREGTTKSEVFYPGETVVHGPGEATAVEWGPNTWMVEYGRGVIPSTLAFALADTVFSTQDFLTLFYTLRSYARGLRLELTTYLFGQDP
Description: as §1, §2, §3

sigma 2 (h) = biological target: T3, sigma 2 (h) (Homo sapiens, UniProt Q5BJF2); test: sigma 2 (h) agonist radioligand binding assay ([3H]DTG); settings: Sigma 2 Receptor, 1.00E−06 M
T3 construct: endogenous; endogenous in cells; host or cells: Jurkat cells
T3 sequence (Q5BJF2 whole entry): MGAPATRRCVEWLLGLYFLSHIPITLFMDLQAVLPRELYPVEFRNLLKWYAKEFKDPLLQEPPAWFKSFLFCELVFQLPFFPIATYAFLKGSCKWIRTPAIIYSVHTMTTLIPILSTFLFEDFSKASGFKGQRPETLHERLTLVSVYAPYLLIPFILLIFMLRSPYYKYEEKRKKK
Description: as §1, §2, §3

[1] = 1st, read-out: % Inhibition of Control Specific Binding, 1st
[2] = 2nd, read-out: % Inhibition of Control Specific Binding, 2nd
[3] = read-out: % Inhibition of Control Specific Binding, 3rd

inhibition at 1 µM (dopamine transporter (h); [1]) | inhibition at 1 µM (dopamine transporter (h); [2]) | inhibition at 1 µM (dopamine transporter (h); [3]) | inhibition at 1 µM (sigma 1 (h); [1]) | inhibition at 1 µM (sigma 1 (h); [2]) | inhibition at 1 µM (sigma 1 (h); [3]) | inhibition at 1 µM (sigma 2 (h); [1]) | inhibition at 1 µM (sigma 2 (h); [2]) | inhibition at 1 µM (sigma 2 (h); [3]) | SMILES
24.6% | 24.4% | 24.5% | 96.7% | 97.6% | 97.1% | 104% | 98.7% | 101% | O=C1CCCc2ccccc2N1CCCCN1CCN(c2cccc(Cl)c2)CC1 [SMB107, 1-(4-(4-(3-Chlorophenyl)piperazin-1-yl)butyl)-1,3,4,5-tetrahydro-2H-benzo[b]azepin-2-one]
28.3% | 25.9% | 27.1% | 93.8% | 95.4% | 94.6% | 95% | 99.8% | 97.4% | O=C1COCc2ccccc2N1CCCCN1CCN(c2cccc(Cl)c2)CC1 [SMB108, 1-(4-(4-(3-Chlorophenyl)piperazin-1-yl)butyl)-1,5-dihydrobenzo[e][1,4]oxazepin-2(3H)-one]
-5.6% | -2.8% | -4.2% | 95.7% | 93.8% | 94.7% | 93.2% | 100% | 96.7% | O=C1CCCc2ccccc2N1CCCCN1CCN(c2ccccc2Cl)CC1 [STG158]
26.5% | 23.2% | 24.8% | 98.8% | 99.2% | 99% | 82.9% | 85.9% | 84.4% | O=C1CCCc2ccccc2N1CCCCN1CCN(c2ccc(Cl)cc2)CC1 [STG188]
8.6% | 5.1% | 6.8% | 92.8% | 93.6% | 93.2% | 82.2% | 78.2% | 80.2% | O=C1COCc2ccccc2N1CCCCN1CCN(c2ccc(Cl)cc2)CC1 [STG189]
9.2% | 14.8% | 12% | 101% | 101% | 101% | 96.4% | 95.5% | 95.9% | O=C1CSCc2ccccc2N1CCCCN1CCN(c2ccc(Cl)cc2)CC1 [STG190]
21.8% | 27.6% | 24.7% | 98.6% | 98.5% | 98.6% | 86.2% | 102% | 94.4% | O=C1CSCc2ccccc2N1CCCCN1CCN(c2cccc(Cl)c2)CC1 [STG191]
12.6% | 4.3% | 8.5% | 53.5% | 53.2% | 53.3% | 56.6% | 43.4% | 50% | O=C1CSCc2ccccc2N1CCCCN1CCN(c2ccccc2Cl)CC1 [STG192]

SMILES | inhibition at 1 µM (dopamine transporter (h); [1]) | inhibition at 1 µM (dopamine transporter (h); [2]) | inhibition at 1 µM (dopamine transporter (h); [3]) | inhibition at 1 µM (sigma 1 (h); [1]) | inhibition at 1 µM (sigma 1 (h); [2]) | inhibition at 1 µM (sigma 1 (h); [3]) | inhibition at 1 µM (sigma 2 (h); [1]) | inhibition at 1 µM (sigma 2 (h); [2]) | inhibition at 1 µM (sigma 2 (h); [3])
Cn1c(=O)n(CCCCN2CCC3(CC2)OCc2ccccc23)c2ccccc21 [CM699, reference compound] | 18.6% | 23.2% | 20.9% | 95.6% | 94% | 94.8% | 88% | 95.9% | 92%
O=C1COCc2ccccc2N1CCCCN1CCC2(CC1)OCc1ccccc12 [STG135, 1-(4-(3H-spiro[isobenzofuran-1,4′-piperidin]-1′-yl)butyl)-1,5-dihydrobenzo[e][1,4]oxazepin-2(3H)-one] | 6% | 3.5% | 4.8% | 97.9% | 94.5% | 96.2% | 106% | 84.4% | 95.2%
O=C1CCCc2ccccc2N1CCCCN1CCC2(CC1)OCc1ccccc12 [STG136, 1-(4-(3H-spiro[isobenzofuran-1,4′-piperidin]-1′-yl)butyl)-1,3,4,5-tetrahydro-2H-benzo[b]azepin-2-one] | 7.9% | 11.4% | 9.7% | 98.8% | 98.4% | 98.6% | 90.3% | 100% | 95.3%
O=C1CSCc2ccccc2N1CCCCN1CCC2(CC1)OCc1ccccc12 [STG187] | 12.9% | 13.1% | 13% | 93.6% | 98.9% | 96.3% | 96.5% | 108% | 102%
